The values below come from patent publication US6545131B1, “Tissue specific prodrug” (priority 1997, dated 2003).

Data set [1] in a line: Stability of PSA substrates in serum (AMC release). It is filed as in vitro ADME. The settings on record: 0.2 mM substrate. The text has this:
(§1) PSA was purified from human seminal plasma as described in Christensson, et al. Eur. J. Biochem. 194:755-765, (1990). Plasmin, urokinase, tissue plasminogen activator (TPA), human plasma and porcine pancreatic kallikrein and a 1-antichymotrypsin were obtained from Calbiochem (San Diego, Calif.). All other proteases were obtained from Sigma Chemical Co. (St. Louis, Mo.). Mouse serum was obtained from East Acres Biologicals (South Bridge, Mass.). Goat and calf sera were obtained from Gibco BRL (Grand Island, N.Y.). Rat serum was obtained in-house from sacrificed animals. Human serum was obtained from volunteers.
(§2) Cleavage was studied by measuring fluorescence change secondary to AMC release. Fluorescence detection was carried out with a Fluoroskan II 96 well fluorometric plate reader (ICN Biomedicals, Costa Mesa, Calif.), with excitation wavelength 355 nm and emission wavelength 460 nm. Data were collected and analyzed using Deltasoft III software (Biometallics, Princeton, N.J.). All reactions were performed at room temperature by the addition of substrate and proteases into PSA buffer, described below, in a final volume of 200 μL. The results were determined from the initial linear increase of fluorescence and were expressed as the picomoles of AMC released per minute based upon comparison to a standard curve of the fluorescence of known amounts of AMC (i.e., fluorescence was linear form 20 to 300 picomoles of AMC). The data were analyzed by Lineweaver-Burke reciprocal plots to determine the Michaelis-Menten constant (i.e., Km) expressed as the amount of substrate needed to saturate half of the enzyme and the catalytic rate constant (i.e., kcat) expressed as the amount of substrate converted to product per time per amount of enzyme.
Because the prodrug can be given systemically via the blood, it is useful to determine the stability of the substrates in sera from a variety of species. The substrates and experimental details are found as described in Example 1.
The amino acid sequences expressed in one letter amino acid code represent the following amino acid sequences in the three letter amino acid code: EHSSKLQ (Glu-His-Ser-Ser-Lys-Leu-Gln; SEQ ID NO:10), QNKISYQ (Gln-Asn-Lys-Ile-Ser-Tyr-Gln; SEQ ID NO:11), ENKISYQ (Glu-Asn-Lys-Ile-Ser-Tyr-Gln; SEQ ID NO:12) and ATKSKQH (Ala-Thr-Lys-Ser-Lys-Gln-His; SEQ ID NO:13). Determinations listed in the table were carried out with substrates at 0.2 mM concentration in the PSA assay buffer (50 mM Tris/0.1M NaCl pH 7.8). AMC is 7-amino-4-methylcoumarin. The human serum used was 100% for each assay. The entry “UD” stands for “undetectable”, and means that not more than 0.01 picomole of substrate per minute was cleaved.

The target of another data set is T1, chymotrypsin (Bos taurus, UniProt P00766).
T1 construct: purchased Sigma Chemical Co
Put plainly: Peptide-AMC cleavage by purified extracellular protease. It is filed as biochemical. As to conditions: 0.2 mM substrate, PSA assay buffer pH 7.8. On the procedure:
(§3) The peptides discussed herein were custom synthesized by Enzyme Systems Products (Dublin, Calif.) and, after HPLC separation and purification to >95%, the molecular weights were confirmed by mass spectroscopy. All peptides had morpholinocarbonyl protecting the amino terminus and 7-amino-4-methylcoumarin (AMC) attached via an amide bond to the carboxyl group of the carboxy-terminal amino acid. Peptides were first dissolved in distilled water (5 mM) and then diluted into PSA assay buffer (50 mM Tris/0.1M NaCl pH 7.8). The glutamine-AMC peptide had the amino terminus and side chain amine unprotected and was obtained from Bachem (Torrance, Calif.).
as §1, §2
(§4) Each assay contains 200 picomoles of the particular protease and 0.2 mM concentration of the particular substrate (i.e., 40,000 picomoles/200 μL of assay volume). The amino acid sequences expressed in one letter amino acid code represent the following amino acid sequences in the three letter amino acid code: EHSSKLQ (Glu-His-Ser-Ser-Lys-Leu-Gln; SEQ ID NO:10), QNKISYQ (Gln-Asn-Lys-Ile-Ser-Tyr-Gln; SEQ ID NO:11), ENKISYQ (Glu-Asn-Lys-Ile-Ser-Tyr-Gln; SEQ ID NO:12), and ATKSKQH (Ala-Thr-Lys-Ser-Lys-Gln-His; SEQ ID NO:13). Determinations listed in the table were carried out with substrates at 0.2 mM concentration in the PSA assay buffer (50 mM Tris/0.1M NaCl pH 7.8). The entry “UD” stands for “undetectable” and means that at most, 0.1 pmole of substrate cleavage per minute per 200 pmole protease took place. Asterisks represent experiments not performed. Abbreviations are as follows: PSA (prostate specific antigen), Chymo (chymotrypsin), Urokin (urokinase), TPA (tissue plasminogen activator), Thromb (thrombin), Kallik (human kallikrein, hK1).

Data set [2] concerns the target T2, tissue plasminogen activator (TPA) (Homo sapiens, UniProt P00750).
T2 construct: purchased Calbiochem
Described as above. It is filed as biochemical. As to conditions: 0.2 mM substrate, PSA assay buffer pH 7.8. On the procedure:
as §3, §1, §2, §4

For the next data set, the target named is T3, thrombin (Homo sapiens, UniProt P00734).
T3 construct: purchased Sigma Chemical Co
Described as above. The settings on record: 0.2 mM substrate, PSA assay buffer pH 7.8. It is filed as biochemical. As to the method:
as §3, §1, §2, §4

The next data set has as its target T4, urokinase (Homo sapiens, UniProt P00749).
T4 construct: purchased Calbiochem
The data set is described as above. It is filed as biochemical. The settings on record: 0.2 mM substrate, PSA assay buffer pH 7.8. As to the method:
as §3, §1, §2, §4

Another data set relates to Elastase. The description is as above. It is filed as biochemical. As to conditions: 0.2 mM substrate, PSA assay buffer pH 7.8. As to the method:
as §3, §1, §2, §4

The test system of the next data set is human kallikrein, hK1. The description is as above. As to conditions: 0.2 mM substrate, PSA assay buffer pH 7.8. It is filed as biochemical. On the procedure:
as §3, §1, §2, §4

A further data set concerns the target T5, Plasmin (Homo sapiens, UniProt P00747).
T5 construct: purchased Calbiochem
Described as above. It is filed as biochemical. As to conditions: 0.2 mM substrate, PSA assay buffer pH 7.8. As to the method: as §3, §1, §2, §4

The next data set has as its system Trypsin. The data set is described as above. The settings on record: 0.2 mM substrate, PSA assay buffer pH 7.8. It is filed as biochemical. On the procedure:
as §3, §1, §2, §4

The target of data set [3] is T6, PSA (prostate specific antigen) (Homo sapiens, UniProt P07288).
T6 construct: PSA was purified from human seminal plasma; from tissue; host or cells: human seminal plasma
Briefly: Cleavage of AMC-labelled peptide substrates by purified PSA (fluorescence of released AMC; Lineweaver-Burke kinetics). It is filed as biochemical. As to the method: as §3, §1, §2, §4
The data in Table 2 are the results of kinetic experiments with the peptide substrates used in Example 1. Experimental details are found in Example 1.
The amino acid sequences expressed in one letter amino acid code represent the following amino acid sequences in the three letter amino acid code: EHSSKLQ (Glu-His-Ser-Ser-Lys-Leu-Gln; SEQ ID NO:10), HSSKLQ (His-Ser-Ser-Lys-Leu-Gln; SEQ ID NO:7), SKLQ (Ser-Lys-Leu-Gln; SEQ ID NO:1), and ATKSKQH (Ala-Thr-Lys-Ser-Lys-Gln-His; SEQ ID NO:13). […]

Another data set has as its system TSU-Pr1 cells. Put plainly: Clonogenic survival of TSU-Pr1 cells after 72 hours exposure to TG analogs. It is filed as cell-based, human. The settings on record: TSU-Pr1, 72 hours exposure; mean (n=5) ± standard error; read-out: LC50 (concentration needed to kill 50% of clonogenic cells). On the procedure:
The primary amine-containing thapsigargin analogs of the invention have non-specific toxicity toward cells. This toxicity is measured as the concentration of analog needed to kill 50% of clonogenic cells (LC50). The LC50 of the analogs of the invention is desirably at most 20 μM, preferably at most 5 μM, and more preferably at most 500 nM of analog.
Percentage clonogenic survival of TSU-Pr1 (2×10^5 cells) following 72 hours of exposure to varying concentrations of TG analogs was performed as described in Martikainen et al. Cancer Res., 51, 4693-4700 (1991).
(§5) The IC50 results are mean (n=3)±standard error. The LC50 results are mean (n=5)±standard error. The entry “ND” stands for “not determined”. Clonogenic survival not determined above 10 μM for dBTG. Analogs with −boc have a t-butoxycarbonyl (boc) protected amino group.
The androgen responsive PSA-producing LNCaP and androgen independent PSA non-producing TSU-Pr1 are human prostate cancer lines were obtained from ATCC (Rockville, Md.) and maintained by serial passage in RPMI 1640 media containing 10% fetal calf serum with 100 units/ml penicillin G, and 100 units/ml streptomycin sulfate (antibiotics from M.A. Bioproducts, Walkerville, Md.) as standard media in 5% CO2/95% air at 37° C. The origins and characteristics of the LNCaP and TSU-Pr1 cell lines are described in Horoszewicz, et al., Cancer Res., 43:1809-1818, (1980)and Iizumi, et al., J. Urol, 137: 1304-1306, (1987).

Data set [4] concerns the target T7, endoplasmic reticulum Ca2+-ATPase (SERCA), SR vesicles from rabbit skeletal muscle (Oryctolagus cuniculus, UniProt P04191).
T7 construct: sarcoplasmic reticulum (SR) vesicles prepared from rabbit skeletal muscle; from tissue; host or cells: rabbit skeletal muscle sarcoplasmic reticulum vesicles
Put plainly: SERCA inhibition: 45Ca2+ uptake to sarcoplasmic reticulum vesicles. It is filed as biochemical. As to conditions: mean (n=3) ± standard error; 5 μg/ml SR protein, free Ca2+ 100 nM, 4 min uptake; read-out: IC50 (50% inhibition of 45Ca2+ uptake to SR vesicles). As to the method: The primary amine-containing thapsigargin analogs of the invention have endoplasmic reticulum Ca^2+-ATPase inhibitory activity. This activity is measured as the concentration of analog needed to inhibit 50% of this ATPase (IC50). The IC50 of the analogs of the invention is desirably at most 500 nM, preferably at most 200 nM, and more preferably at most 50 nM of analog.
The inhibitory potency of thapsigargin and its analogs was determined as the concentration required to produce 50% inhibition (i.e. IC50) of ^45Ca^2+ uptake to sarcoplasmic reticulum (SR) vesicles prepared from rabbit skeletal muscle by the method of De Meis and Hasselbach (J. Biol. Chem., 246: 4759-4763, 1971). The ^45Ca^2+ uptake assay was as described previously (Christensen, et al., FEBS, 335: 345-348, 1993), with the following modifications: 5 μg/ml of SR protein was incubated at 25EC and free Ca^2+ adjusted to 100 nM using 4 min. uptake time. Under these conditions, Ca^2+ could proceed linearly with time for at least 8 minutes. Measurements of Ca^2+ within TSU cells was determined as described previously (Lin et al., The Prostate, 33:201-207, 1997).
as §5

The mark [5] stands for this setting: PSA substrate, PSA assay buffer pH 7.8, Lineweaver-Burke.

Each structure is given as a SMILES string. Starred links: 1 amine or outer side, 2 acyl side, 3 side chain; linkers in the order of their positions; H or OH if unused. Residues, ends and D or L forms follow the SMILES beside them. *: point of attachment. AMC = Cc1cc(=O)oc2cc(N*)ccc12; Morpholide = C1CN(*)CCO1; CO = O=C([*:1])[*:2]

T6 sequence (P07288 25-261): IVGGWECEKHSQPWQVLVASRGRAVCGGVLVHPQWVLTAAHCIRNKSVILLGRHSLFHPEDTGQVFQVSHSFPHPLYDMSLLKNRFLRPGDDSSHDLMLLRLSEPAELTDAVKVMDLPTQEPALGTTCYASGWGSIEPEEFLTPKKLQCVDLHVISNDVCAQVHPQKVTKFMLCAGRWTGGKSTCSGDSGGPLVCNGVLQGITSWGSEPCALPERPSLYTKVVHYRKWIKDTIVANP
T5 sequence (P00747 581-810 limits assumed, species assumed): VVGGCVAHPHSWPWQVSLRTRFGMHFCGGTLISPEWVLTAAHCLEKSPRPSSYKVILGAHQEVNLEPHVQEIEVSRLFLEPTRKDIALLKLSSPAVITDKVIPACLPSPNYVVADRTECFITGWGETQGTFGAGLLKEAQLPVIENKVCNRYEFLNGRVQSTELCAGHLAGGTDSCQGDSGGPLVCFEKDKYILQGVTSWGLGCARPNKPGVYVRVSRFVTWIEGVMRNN
T5 sequence (P00747 97-580 partner limits assumed, species assumed): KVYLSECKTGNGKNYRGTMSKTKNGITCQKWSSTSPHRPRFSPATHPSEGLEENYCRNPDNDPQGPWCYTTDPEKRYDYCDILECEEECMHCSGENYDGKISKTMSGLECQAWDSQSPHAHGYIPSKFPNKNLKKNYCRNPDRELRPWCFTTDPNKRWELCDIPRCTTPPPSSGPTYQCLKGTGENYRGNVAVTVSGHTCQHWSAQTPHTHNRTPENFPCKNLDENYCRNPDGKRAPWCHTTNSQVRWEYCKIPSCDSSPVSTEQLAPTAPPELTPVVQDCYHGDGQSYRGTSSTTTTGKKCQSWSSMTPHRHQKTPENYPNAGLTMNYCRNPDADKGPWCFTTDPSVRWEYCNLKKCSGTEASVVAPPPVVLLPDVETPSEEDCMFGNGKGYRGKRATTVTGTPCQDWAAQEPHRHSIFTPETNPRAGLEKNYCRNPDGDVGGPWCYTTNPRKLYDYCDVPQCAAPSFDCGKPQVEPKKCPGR
T2 sequence (P00750 36-562, species assumed): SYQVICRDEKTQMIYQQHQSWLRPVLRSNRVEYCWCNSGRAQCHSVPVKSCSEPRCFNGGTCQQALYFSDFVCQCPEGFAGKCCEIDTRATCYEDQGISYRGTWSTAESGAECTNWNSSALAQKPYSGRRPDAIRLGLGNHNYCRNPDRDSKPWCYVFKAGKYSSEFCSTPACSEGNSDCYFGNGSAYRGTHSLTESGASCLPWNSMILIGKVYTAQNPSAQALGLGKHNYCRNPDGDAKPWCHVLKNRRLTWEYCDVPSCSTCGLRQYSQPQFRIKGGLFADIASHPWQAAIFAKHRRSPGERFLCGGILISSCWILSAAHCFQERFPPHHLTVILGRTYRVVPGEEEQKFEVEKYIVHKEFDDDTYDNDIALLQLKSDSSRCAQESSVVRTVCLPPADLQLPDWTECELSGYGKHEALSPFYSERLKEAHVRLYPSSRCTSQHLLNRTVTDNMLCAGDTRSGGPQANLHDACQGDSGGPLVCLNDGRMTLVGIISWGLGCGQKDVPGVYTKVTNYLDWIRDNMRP
T7 sequence (P04191 1-994 isoform P04191-2): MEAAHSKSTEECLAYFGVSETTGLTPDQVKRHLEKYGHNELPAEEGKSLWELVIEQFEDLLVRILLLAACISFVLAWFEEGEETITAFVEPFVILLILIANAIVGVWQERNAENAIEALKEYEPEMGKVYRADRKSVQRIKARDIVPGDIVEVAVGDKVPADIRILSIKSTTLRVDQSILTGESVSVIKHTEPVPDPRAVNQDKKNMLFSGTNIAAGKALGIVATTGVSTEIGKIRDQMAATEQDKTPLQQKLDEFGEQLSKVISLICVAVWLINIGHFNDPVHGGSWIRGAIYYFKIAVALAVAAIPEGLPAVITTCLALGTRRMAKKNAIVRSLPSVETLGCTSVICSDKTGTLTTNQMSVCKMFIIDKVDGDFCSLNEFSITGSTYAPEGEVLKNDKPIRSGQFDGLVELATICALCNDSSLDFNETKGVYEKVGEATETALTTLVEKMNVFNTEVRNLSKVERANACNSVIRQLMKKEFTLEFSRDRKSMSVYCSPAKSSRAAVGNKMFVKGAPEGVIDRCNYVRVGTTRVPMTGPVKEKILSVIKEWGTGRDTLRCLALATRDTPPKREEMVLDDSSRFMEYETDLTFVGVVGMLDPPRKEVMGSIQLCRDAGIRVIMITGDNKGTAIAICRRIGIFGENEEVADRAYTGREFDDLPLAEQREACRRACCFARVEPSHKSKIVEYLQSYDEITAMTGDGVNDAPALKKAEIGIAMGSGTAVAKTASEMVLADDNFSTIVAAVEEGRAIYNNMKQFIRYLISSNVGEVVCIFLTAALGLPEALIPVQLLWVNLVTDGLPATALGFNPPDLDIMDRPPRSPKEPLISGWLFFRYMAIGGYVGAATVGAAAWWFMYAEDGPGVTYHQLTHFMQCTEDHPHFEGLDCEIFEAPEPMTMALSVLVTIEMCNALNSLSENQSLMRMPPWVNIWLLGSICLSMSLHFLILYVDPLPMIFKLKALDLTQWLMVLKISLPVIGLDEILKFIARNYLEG

The Km is the concentration of substrate that gives half-maximal velocity. With `Cc1cc(=O)oc2cc(NC(=O)[C@H](Cc3c[nH]cn3)NC(=O)[C@H](CCC(N)=O)NC(=O)[C@H](CCCCN)NC(=O)[C@H](CO)NC(=O)[C@H](CCCCN)NC(=O)[C@@H](NC(=O)[C@H](C)NC(=O)N3CCOCC3)[C@@H](C)O)ccc12` [ATKSKQH, Ala-Thr-Lys-Ser-Lys-Gln-His] ({Morpholide-CO}-ATKSKQH-{AMC}), in data set [1], the “picomles AMC released/minute: Calf” value was “UD (not more than 0.01 picomole of substrate per minute was cleaved)”, the “picomles AMC released/minute: Fetal Calf” value amounted to 1.19 picomoles/minute, the “picomles AMC released/minute: Goat” value amounted to 0.35 picomoles/minute and the “picomles AMC released/minute: Mouse” value was 0.60 picomoles/minute. In data set [1], the “picomles AMC released/minute: Rat” value was 4.31 picomoles/minute. For the same compound, the “picomles AMC released/minute: Human” value in [1] (human serum 100%) is “UD (not more than 0.01 picomole of substrate per minute was cleaved)”. Moreover, the “Picomoles of substrate cleaved/minute/200 pmoles of indicated protease: Chymo” value on chymotrypsin is reported as 38.8 picomoles/minute/200 pmoles pr. For the same compound, in data set [2], the “Picomoles of substrate cleaved/minute/200 pmoles of indicated protease: TPA” value is reported as “UD (at most, 0.1 pmole of substrate cleavage per minute per 200 pmole protease took place)”. Moreover, the “Picomoles of substrate cleaved/minute/200 pmoles of indicated protease: Thromb” value at thrombin is on record as 0.2 picomoles/minute/200 pmoles pr. For the same compound, the “Picomoles of substrate cleaved/minute/200 pmoles of indicated protease: Urokin” value at urokinase was “UD (at most, 0.1 pmole of substrate cleavage per minute per 200 pmole protease took place)”. Further, in the data set on Elastase, the “Picomoles of substrate cleaved/minute/200 pmoles of indicated protease: Elastase” value was “UD (at most, 0.1 pmole of substrate cleavage per minute per 200 pmole protease took place)”. Also, in the data set with human kallikrein, hK1, the “Picomoles of substrate cleaved/minute/200 pmoles of indicated protease: Kallik” value was “UD (at most, 0.1 pmole of substrate cleavage per minute per 200 pmole protease took place)”. Also, on Plasmin, the “Picomoles of substrate cleaved/minute/200 pmoles of indicated protease: Plasmin” value is reported as “UD (at most, 0.1 pmole of substrate cleavage per minute per 200 pmole protease took place)”. In addition, the “Picomoles of substrate cleaved/minute/200 pmoles of indicated protease: Trypsin” value with Trypsin is on record as “UD (at most, 0.1 pmole of substrate cleavage per minute per 200 pmole protease took place)”. The “Picomoles of substrate cleaved/minute/200 pmoles of indicated protease: PSA” value in data set [3] (0.2 mM substrate, PSA assay buffer pH 7.8, room temperature) is given as 16.0 picomoles/minute/200 pmoles pr. In [3] (setting [5]), the Kcat came to 0.0091 s⁻¹ and the Km was found to be 310 µM.

In general, IC50 refers to the concentration needed to halve the response being measured. As for `CC=C(C)C(=O)OC1C(C)=C2C(C1OC(=O)CCCCCCC)C(C)(OC(C)=O)CC(OC(=O)C=Cc1ccc(N)cc1)C1(O)C2OC(=O)C1(C)O` (stereo not shown) [ACT, 8-O-(4-aminocinnamoyl)-8-O-debutanoylthapsigargin], the CC50 with TSU-Pr1 cells amounted to 100 ± 6 nM. For the same compound, the IC50 in data set [4] was 18.7 ± 0.2 nM.
